Among the test systems are CCRF-CEM leukemia; NCI/ADR-RES ovarian; 786-0 renal; HCT-116 colon; RPMI-8226 leukemia; SF-539 CNS; DU-145 prostate; SF-268 CNS; A498 renal; LOX IMVI melanoma.
What all share (test): growth of human tumour cells (NCI), 48 h

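Five concentrations, 48 hours, 96-well plates. GI50 marks 50% less growth. The concentration for full growth arrest is given as TGI.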

`Cc1ccc(N=C/C=C(\Nc2ccc(C)cc2)c2ccc3ccccc3c2)cc1`: the TGI is 0.558 µM in the experiment with CCRF-CEM leukemia; 2.16 µM in the experiment on NCI/ADR-RES ovarian; 3.38 µM with 786-0 renal; 2.99 µM with HCT-116 colon; 2.56 µM in the experiment with RPMI-8226 leukemia; 3.45 µM with SF-539 CNS. Further, the TGI is 10.7 µM in the experiment on DU-145 prostate, 28.8 µM in the experiment on SF-268 CNS, 24.2 µM in the experiment on A498 renal and 1.91 µM in the experiment with LOX IMVI melanoma.

On to `Cc1nc(C)c(N2CCN(CN)CC2)c(=O)[nH]1`, for which the TGI with CCRF-CEM leukemia, in the experiment on NCI/ADR-RES ovarian, in the experiment on 786-0 renal, in the experiment on HCT-116 colon, in the experiment on RPMI-8226 leukemia and in the experiment on SF-539 CNS was above 100 µM throughout. The TGI in the experiment with DU-145 prostate, in the experiment on SF-268 CNS, in the experiment with A498 renal and in the experiment with LOX IMVI melanoma was above 100 µM throughout.

For the molecule `Oc1cccc2c(Br)ccnc12`, the TGI was 4.1 µM with CCRF-CEM leukemia; 12.7 µM with NCI/ADR-RES ovarian; above 100 µM in the experiment with 786-0 renal; 12.2 µM in the experiment on HCT-116 colon; 4.72 µM in the experiment with RPMI-8226 leukemia; above 49.1 µM with SF-539 CNS. For the same molecule, the TGI was 39.5 µM with DU-145 prostate, 14.2 µM with SF-268 CNS, 39.1 µM with A498 renal and 12.7 µM with LOX IMVI melanoma.

For `O=c1cc(-c2ccccc2)oc2c1ccc1[nH]c3ccccc3c(=O)c12`, the TGI in the experiment on CCRF-CEM leukemia, in the experiment with NCI/ADR-RES ovarian, in the experiment with 786-0 renal, in the experiment on HCT-116 colon, in the experiment with RPMI-8226 leukemia and in the experiment on SF-539 CNS was above 100 µM throughout. In addition, the TGI in the experiment on DU-145 prostate is above 100 µM; with SF-268 CNS, above 100 µM; in the experiment with A498 renal it was above 100 µM; in the experiment on LOX IMVI melanoma, 34.9 µM.

For the molecule `c1ccc2c[n+](CCCC[n+]3ccc4ccccc4c3)ccc2c1`, the TGI with CCRF-CEM leukemia, with NCI/ADR-RES ovarian, in the experiment on 786-0 renal, in the experiment on HCT-116 colon, with RPMI-8226 leukemia and in the experiment with SF-539 CNS was above 100 µM each time. Moreover, the TGI in the experiment on DU-145 prostate, with SF-268 CNS, with A498 renal and with LOX IMVI melanoma was above 100 µM throughout.

Consider `O=C1C=CC(=O)c2c(O)c(N3CCOCC3)c(Cl)c(O)c21`, for which the TGI with CCRF-CEM leukemia is above 10 µM; in the experiment on NCI/ADR-RES ovarian it was 1.43 µM; in the experiment with 786-0 renal, 0.84 µM; in the experiment on HCT-116 colon, 0.403 µM; in the experiment with RPMI-8226 leukemia it was above 10 µM; in the experiment with SF-539 CNS it was 1 µM. In addition, the TGI in the experiment on DU-145 prostate came to 2.93 µM; in the experiment on SF-268 CNS it was 3.19 µM; with A498 renal it was 3.01 µM; in the experiment with LOX IMVI melanoma it was 0.419 µM.

With `O=CC(O)C(O)C(O)C(O)COC(=O)NCCCCC(=O)C(F)(F)C(F)(F)C(F)(F)C(F)(F)C(F)(F)C(F)(F)C(F)(F)F` (stereo not drawn), the TGI in the experiment with CCRF-CEM leukemia is 56 µM; in the experiment with NCI/ADR-RES ovarian, above 100 µM; in the experiment with 786-0 renal, above 100 µM; in the experiment with HCT-116 colon, 33.4 µM; with RPMI-8226 leukemia, above 100 µM; in the experiment with SF-539 CNS, 39.2 µM. Besides, the TGI was above 100 µM in the experiment on DU-145 prostate, 93.5 µM in the experiment with SF-268 CNS, 47.5 µM with A498 renal and 30.1 µM in the experiment on LOX IMVI melanoma.

Regarding `CC/C=C/c1cc2c(cc1O)CCC1C2CC[C@@]2(C)C1CC[C@@H]2O` (stereo partly drawn), the TGI stood at 14.8 µM in the experiment on CCRF-CEM leukemia; 5.67 µM with NCI/ADR-RES ovarian; 13.8 µM with 786-0 renal; 14.3 µM in the experiment with HCT-116 colon; 6.46 µM with RPMI-8226 leukemia; 2.59 µM in the experiment with SF-539 CNS. In addition, the TGI with DU-145 prostate was determined as 14.6 µM; in the experiment with SF-268 CNS it was 24.8 µM; with A498 renal it was 9.03 µM; in the experiment on LOX IMVI melanoma, 6.68 µM. Also, in the experiment on SF-539 CNS, the GI50 is 0.645 µM.

Regarding `Cn1c2ccc(Cl)cc2c2ccc3c(c21)C(=O)C=CC3=O`, the TGI in the experiment with CCRF-CEM leukemia, in the experiment on NCI/ADR-RES ovarian, in the experiment with 786-0 renal, in the experiment on HCT-116 colon, in the experiment with RPMI-8226 leukemia and with SF-539 CNS was above 10 µM each time. Moreover, the TGI in the experiment with DU-145 prostate, with SF-268 CNS, with A498 renal and in the experiment on LOX IMVI melanoma was above 10 µM in each case.

As to `Cc1ccc(S(=O)(=O)OCCC2CN(C(=O)OCc3ccccc3)C(C)(C)O2)cc1` (stereo not drawn), the TGI was above 100 µM in the experiment on CCRF-CEM leukemia; 15.7 µM in the experiment on NCI/ADR-RES ovarian; above 100 µM in the experiment on 786-0 renal; above 100 µM in the experiment on HCT-116 colon; 32.4 µM in the experiment on RPMI-8226 leukemia; above 100 µM in the experiment with SF-539 CNS. The TGI in the experiment on DU-145 prostate, in the experiment with A498 renal and in the experiment with LOX IMVI melanoma was above 100 µM throughout.

As to `O=C1N2CCC[C@H]2CS1(=O)=O`, the TGI in the experiment with CCRF-CEM leukemia is 7.1 µM; in the experiment with NCI/ADR-RES ovarian, above 100 µM; with 786-0 renal it was 23.1 µM; in the experiment with HCT-116 colon, 28.1 µM; in the experiment on RPMI-8226 leukemia, 10.8 µM; in the experiment with SF-539 CNS, above 100 µM. The TGI in the experiment on DU-145 prostate was 35.8 µM; in the experiment on SF-268 CNS, 42.7 µM; in the experiment with A498 renal, 44.5 µM; with LOX IMVI melanoma, 27.3 µM.

For the molecule `COC(=O)c1c2c(cc3c1CC1(Cc4cc5c(c(C)c4C1)CCC5)C3)CCC2` (stereo not drawn), the TGI with CCRF-CEM leukemia, in the experiment with NCI/ADR-RES ovarian, in the experiment on 786-0 renal, with HCT-116 colon, in the experiment with RPMI-8226 leukemia and in the experiment on SF-539 CNS was above 100 µM each time. Further, the TGI with DU-145 prostate, in the experiment with SF-268 CNS, in the experiment with A498 renal and with LOX IMVI melanoma was above 100 µM in each case.

As to `CCOC(=O)c1cc2c3c(c(C(C)=O)c(OC)c2[nH]1)N(C(=O)CC)CC3`, the TGI was 71.4 µM with CCRF-CEM leukemia; 31 µM in the experiment on NCI/ADR-RES ovarian; 34.9 µM with 786-0 renal; 30.9 µM with HCT-116 colon; 26.2 µM in the experiment on RPMI-8226 leukemia; 41.7 µM in the experiment with SF-539 CNS. Also, the TGI is 29.6 µM with DU-145 prostate, 36.6 µM with SF-268 CNS, above 100 µM with A498 renal and 29.6 µM with LOX IMVI melanoma.

Turning to `CCCC1=C(OC)C(=O)c2c(C)cc(Cl)nc2C1=O`, the TGI in the experiment on CCRF-CEM leukemia stood at 2.77 µM; in the experiment on NCI/ADR-RES ovarian, 14.2 µM; in the experiment on 786-0 renal, 5.23 µM; in the experiment on HCT-116 colon, 7.26 µM; with RPMI-8226 leukemia it was 5.98 µM; with SF-539 CNS, 20.3 µM. Besides, the TGI amounted to 28.6 µM with DU-145 prostate, 27.2 µM with SF-268 CNS, 35 µM with A498 renal and 5.15 µM with LOX IMVI melanoma.

As to `O=C1C=CC2(O[C@H](C3CCCCC3)[C@@H](C3CCCCC3)O2)C(SC(=O)c2ccccc2)C1` (stereo partly drawn), the TGI with CCRF-CEM leukemia was determined as 5.87 µM; in the experiment on NCI/ADR-RES ovarian, 13.1 µM; in the experiment on 786-0 renal, 5.09 µM; with HCT-116 colon it was 1.75 µM; in the experiment with RPMI-8226 leukemia it was 2.22 µM; in the experiment with SF-539 CNS it was 11.6 µM. In addition, the TGI was 10.4 µM in the experiment on DU-145 prostate, 5.89 µM with SF-268 CNS, 18.4 µM in the experiment with A498 renal and 5.92 µM in the experiment on LOX IMVI melanoma.

On to `C=C(CN(CC)CC)C1(c2ccccc2)CC2(CCCC2)C(=O)O1` (stereo not drawn), for which the TGI in the experiment with CCRF-CEM leukemia was above 100 µM; in the experiment on NCI/ADR-RES ovarian, 84.4 µM; with 786-0 renal, above 100 µM; in the experiment with HCT-116 colon it was above 100 µM; with RPMI-8226 leukemia it was above 100 µM; in the experiment with SF-539 CNS, above 100 µM. The TGI with DU-145 prostate, in the experiment with SF-268 CNS, in the experiment with A498 renal and with LOX IMVI melanoma was above 100 µM each time.

`CC(c1ccccc1)n1cncc1C(=O)NN1CCN(C)CC1` (stereo not drawn): the TGI in the experiment on CCRF-CEM leukemia, in the experiment on NCI/ADR-RES ovarian, with 786-0 renal, in the experiment on HCT-116 colon, in the experiment with RPMI-8226 leukemia and with SF-539 CNS was above 10 µM in each case. In addition, the TGI in the experiment with DU-145 prostate, in the experiment on SF-268 CNS, in the experiment on A498 renal and with LOX IMVI melanoma was above 10 µM in each case.

For `COc1ccc(/C=c2\[nH]c3nc(=O)c(N4CCCCC4)c(N)n3c2=O)cc1`, the TGI in the experiment on CCRF-CEM leukemia, in the experiment with NCI/ADR-RES ovarian, with 786-0 renal, in the experiment on HCT-116 colon, with RPMI-8226 leukemia and in the experiment with SF-539 CNS was above 100 µM each time. Besides, the TGI with DU-145 prostate, in the experiment with SF-268 CNS, in the experiment with A498 renal and in the experiment with LOX IMVI melanoma was above 100 µM throughout.

Regarding `O=C(Nc1ccc(-n2cc(-c3ccncc3)c(-c3ccc(O)c(Cl)c3)n2)cc1)c1ccc(Cl)c(C(F)(F)F)c1`, the GI50 with CCRF-CEM leukemia was 0.275 µM; with NCI/ADR-RES ovarian, 2.57 µM; with HCT-116 colon, 1.75 µM; with RPMI-8226 leukemia, 0.65 µM; in the experiment on SF-539 CNS, 0.96 µM; in the experiment with DU-145 prostate it was 3.35 µM. Besides, the GI50 in the experiment with SF-268 CNS was 2.79 µM; in the experiment with A498 renal, 41.7 µM; with LOX IMVI melanoma, 1.12 µM. Further, the TGI in the experiment with CCRF-CEM leukemia was above 50 µM; with NCI/ADR-RES ovarian, above 50 µM; in the experiment on HCT-116 colon, 7.04 µM; in the experiment with RPMI-8226 leukemia, 2.52 µM; in the experiment on SF-539 CNS, 3.41 µM; in the experiment with DU-145 prostate, above 50 µM. The TGI with SF-268 CNS was above 50 µM; in the experiment on A498 renal, above 50 µM; with LOX IMVI melanoma it was 6.88 µM.

These data come from PubChem BioAssay (NCI).
